# Measurements: patent US10266548B2, “Substituted benzylindazoles for use as Bub1 kinase inhibitors in the treatment of hyperproliferative diseases” (Bayer Intellectual Property GmbH, priority 2011, dated 2019)
# Values joined by “and” are separate entries in the source; they are usually repeats but may differ in a detail not shown here. Identical values can stand only once. Counter-ions that a name gives are not always drawn. Like-named read-outs stand apart in the source and are kept apart here.
# What was measured:
# HeLa cells = assay: Proliferation assay (HeLa cell line); type: cell-based; conditions: Homo sapiens, 96 h, read-out: Biological Assay 2: Proliferation assay (HeLa cell line) median IC50
# [1] = biological target: catalytic domain of human Bub1 (amino acids 704-1085) (Homo sapiens (Human), UniProt O43683); assay: Bub1 kinase assay (TR-FRET); type: biochemical; conditions: 10 μM ATP, 1 μM peptide substrate; read-out: Biological Assay 1: Bub1 kinase assay median IC50
# In short: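 Phosphoserine product detected by TR-FRET (Eu-labeled anti-mouse IgG/anti-phosphoserine antibody to streptavidin-XL665) after 1 h at 22 °C. IC50 from 4-parameter logistic fit.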
# catalytic domain of human Bub1 (amino acids 704-1085), sequence (O43683 704-1085): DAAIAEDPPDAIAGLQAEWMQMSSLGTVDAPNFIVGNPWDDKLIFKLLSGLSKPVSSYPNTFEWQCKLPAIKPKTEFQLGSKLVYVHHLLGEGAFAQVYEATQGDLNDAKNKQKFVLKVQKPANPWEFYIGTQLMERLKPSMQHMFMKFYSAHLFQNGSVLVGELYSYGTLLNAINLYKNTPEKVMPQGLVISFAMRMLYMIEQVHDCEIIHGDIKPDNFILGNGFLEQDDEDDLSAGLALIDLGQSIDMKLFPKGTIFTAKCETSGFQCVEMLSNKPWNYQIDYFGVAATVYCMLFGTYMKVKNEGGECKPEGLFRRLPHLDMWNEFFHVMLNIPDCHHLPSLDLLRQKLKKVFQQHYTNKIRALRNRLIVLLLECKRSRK
SMILES,IC50 (HeLa cells) [nM],IC50 [1],"IC50 (HeLa cells; 4 days, crystal violet) [nM]"
"NC(=O)c1cnc(-c2nn(Cc3ccccc3F)c3ccccc23)nc1Nc1ccncc1 [Example 32-1, 2-[1-(2-fluorobenzyl)-1H-indazol-3-yl]-4-(pyridin-4-ylamino)pyrimidine-5-carboxamide]",≥ 10000,120 nM,
"COc1cnc(-c2nn(Cc3c(Cl)ccc(C(C)(C)O)c3Cl)c3ccccc23)nc1Nc1ccncc1 [Example 9-3, 2-[2,4-dichloro-3-({3-[5-methoxy-4-(pyridin-4-ylamino)pyrimidin-2-yl]-1H-indazol-1-yl}methyl)phenyl] propan-2-ol]",7000,23 nM,
"Fc1ccccc1Cn1nc(-c2ncc(OCc3nnn[nH]3)c(Nc3ccncc3)n2)c2ccccc21 [Example 4-7, 2-[1-(2-fluorobenzyl)-1H-indazol-3-yl]-N-(pyridin-4-yl)-5-(1H-tetrazol-5-ylmethoxy) pyrimidin-4-amine]",,35 nM,≥ 10000
"COc1cnc(-c2nn(Cc3ccc(C#N)cc3)c3ccccc23)nc1Nc1ccncc1 [Example 2-42-1, 4-({3-[5-methoxy-4-(pyridin-4-ylamino)pyrimidin-2-yl]-1H-indazol-1-yl}methyl)benzonitrile]",,190 nM,≥ 10000
"COc1cnc(-c2nn(Cc3cccc(CC(C)(C)O)c3)c3ccccc23)nc1Nc1ccncc1 [Example 9-2, 1-[3-({3-[5-methoxy-4-(pyridin-4-ylamino)pyrimidin-2-yl]-1H-indazol-1-yl}methyl)phenyl]-2-methylpropan-2-ol]",,21 nM,≥ 10000
"CCOc1cc(F)c(Cn2nc(-c3ncc(OCC(=O)N4CC(F)C4)c(Nc4ccncc4)n3)c3ccccc32)c(F)c1 [Example 4-21, 2-({2-[1-(4-ethoxy-2,6-difluorobenzyl)-1H-indazol-3-yl]-4-(pyridin-4-ylamino)pyrimidin-5-yl}oxy)-1-(3-fiuoroazetidin-1-yl)ethanone]",3800,7.8 nM,
"CCOc1cc(F)c(Cn2nc(-c3ncc(OC(F)F)c(Nc4ccncc4)n3)c3ccccc32)c(F)c1 [Example 10-1, 5-(difluoromethoxy)-2-[1-(4-ethoxy-2,6-difluorobenzyl)-1H-indazol-3-yl]-N-(pyridin-4 yl)pyrimidin-4-amine]",,12 nM,2000
"COc1cnc(-c2nn(Cc3c(Cl)ccc(C(=O)NCCO)c3Cl)c3ccccc23)nc1Nc1ccncc1 [Example 20-4, 2,4-dichloro-N-(2-hydroxyethyl)-3-({3-[5-methoxy-4-(pyridin-4-yla-mino)pyrimidin-2-yl]-1H-indazol-1-yl}methyl) benzamide]",,750 nM,≥ 10000
"COCc1noc(COc2cnc(-c3nn(Cc4ccccc4F)c4ccccc34)nc2Nc2ccncc2)n1 [Example 4-13, 2-[1-(2-fluorobenzyl)-1H-indazol-3-yl]-5-{[3-(methoxymethyl)-1,2,4-oxadiazol-5-yl]methoxy}-N-(pyridin-4-yl)pyrimidin-4-amine]",8000,76 nM and 7.6 nM,
"CCOC(=O)COc1cnc(-c2nn(Cc3c(F)cc(OCC)cc3F)c3ccccc23)nc1Nc1ccncc1 [Example 4-14, ethyl ({2-[1-(4-ethoxy-2,6-difluorobenzyl)-1H-indazol-3-yl]-4-(pyridin-4-ylamino)pyrimidin-5-yl}oxy)acetate]",,12 nM,≥ 10000
"CCOc1cc(F)c(Cn2nc(-c3ncc(OCCOC)c(Nc4ccncc4)n3)c3ccccc32)c(F)c1 [Example 4-10, 2-[1-(4-ethoxy-2,6-difluorobenzyl)-1H-indazol-3-yl]-5-(2-methoxyethoxy)-N-(pyridin-4-yl)pyrimidin-4-amine]",4400,9 nM,
"COc1cnc(-c2nn(Cc3c(Cl)ccc(C)c3F)c3ccccc23)nc1Nc1ccncc1 [Example 2-1-1, 2-[1-(6-chloro-2-fluoro-3-methylbenzyl)-1H-indazol-3-yl]-5-methoxy-N-(pyridin-4-yl)pyrimidin-4-amine]",,2.6 nM,3800
"Fc1ccccc1Cn1nc(-c2ncc(OCCc3nnn[nH]3)c(Nc3ccncc3)n2)c2ccccc21 [Example 4-5-1, 2-[1-(2-fluorobenzyl)-1H-indazol-3-yl]-N-(pyridin-4-yl)-5-[2-(1H-tetrazol-5-yl)ethoxy] pyrimidin-4-amine]",,18 nM,≥ 10000
"Fc1ccccc1Cn1nc(-c2nccc(Nc3ccncc3)n2)c2ccccc21 [Example 5-3, 2-[1-(2-fluorobenzyl)-1H-indazol-3-yl]-N-(pyridin-4-yl)pyrimidin-4-amine]",7400,28 nM,
"O=C(O)c1cnccc1Nc1nc(-c2nn(Cc3ccccc3F)c3ccccc23)ncc1OCCO [Example 33-1, 4-({2-[1-(2-fluorobenzyl)-1H-indazol-3-yl]-5-(2-hydroxyethoxy)pyrimidin-4-yl}amino)pyridine-3-carboxylic acid hydrochloride (1:1)]",≥ 10000,11 nM,
"CCOC(=O)C(C)(C)c1cccc(Cn2nc(-c3ncc(OC)c(Nc4ccncc4)n3)c3ccccc32)c1 [Example 2-41-1, ethyl 2-[3-({3-[5-methoxy-4-(pyridin-4-ylamino)pyrimidin-2-yl]-1H-indazol-1-yl}methyl)phenyl]-2-methylpropanoate]",7900,150 nM,

SMILES,IC50 (HeLa cells) [nM],IC50 [1],"IC50 (HeLa cells; 4 days, crystal violet) [nM]"
"COc1cnc(-c2nn(Cc3ccc4c(c3)OC(=O)C4)c3ccccc23)nc1Nc1ccncc1 [Example 2-38-1, 6-({3-[5-methoxy-4-(pyridin-4-ylamino)pyrimidin-2-yl]-1H-indazol-1-yl}methyl)-1-benzofuran-2(3H)-one]",,76 nM,≥ 10000
"Oc1cnc(-c2nn(Cc3ccc(F)cc3)c3ccccc23)nc1Nc1ccncc1 [Example 3-4, 2-[1-(4-fluorobenzyl)-1H-indazol-3-yl]-4-(pyridin-4-ylamino) pyrimidin-5-ol]",,48 nM,≥ 10000
"CCOc1cc(F)c(Cn2nc(-c3nccc(Nc4ccncc4)n3)c3ccccc32)c(F)c1 [Example 5-1, 2-[1-(4-ethoxy-2,6-difluorobenzyl)-1H-indazol-3-yl]-N-(pyridin-4-yl)pyrimidin-4-amine]",1400,5.2 nM,
"COc1cnc(-c2nn(Cc3cccc(SC(F)(F)F)c3)c3ccccc23)nc1Nc1ccncc1 [Example 2-7-3, 5-methoxy-N-(pyridin-4-yl)-2-(1-{3-[(trifluoromethyl)sulfanyl]benzyl}-1H-indazol-3-yl)pyrimidin-4-amine]",≥ 10000,430 nM,
"COc1ccc(Cn2nc(-c3ncc(O)c(Nc4ccncc4)n3)c3ccccc32)cc1 [Example 3-2, 2-[1-(4-methoxybenzyl)-1H-indazol-3-yl]-4-(pyridin-4-ylamino) pyrimidin-5-ol]",≥ 10000,9.8 nM,
"Oc1cnc(-c2nn(Cc3ccccc3F)c3ccccc23)nc1Nc1ccncc1 [Example 3-3, 2-[1-(2-fluorobenzyl)-1H-indazol-3-yl]-4-(pyridin-4-ylamino)pyrimidin-5-ol]",≥ 10000,15 nM,
"COc1cnc(-c2nn(Cc3c(F)cc(C(C)=O)cc3F)c3ccccc23)nc1Nc1ccncc1 [Example 7-1, 1-[3,5-difluoro-4-({3-[5-methoxy-4-(pyridin-4-ylamino)pyrimidin-2-yl]-1H-indazol-1-yl}methyl)phenyl]ethanone]",4400,3 nM,
"NC(=O)c1cnccc1Nc1nc(-c2nn(Cc3ccccc3F)c3ccccc23)ncc1O [Example 30-1, 4-({2-[1-(2-fluorobenzyl)-1H-indazol-3-yl]-5-hydroxypyrimidin-4-yl}amino)pyridine-3-carboxamide]",,17 nM,≥ 10000
"COc1cnc(-c2nn(Cc3c(F)cccc3F)c3ccccc23)nc1Nc1ccncc1 [Example 2-7-1, 2-[1-(2,6-difluorobenzyl)-1H-indazol-3-yl]-5-methoxy-N-(pyridin-4-yl)pyrimidin-4-amine]",≥ 10000,4.8 nM,
"COc1cnc(-c2nn(Cc3c(Cl)ccc(OC)c3F)c3ccccc23)nc1Nc1ccncc1 [Example 2-2-1, 2-[1-(6-chloro-2-fluoro-3-methoxybenzyl)-1H-indazol-3-yl]-5-methoxy-N-(pyridin-4-yl)pyrimidin-4-amine]",,2.6 nM,3400
"N#Cc1cnccc1Nc1nc(-c2nn(Cc3ccccc3F)c3ccccc23)ncc1O [Example 26-1, 4-({2-[1-(2-fluorobenzyl)-1H-indazol-3-yl]-5-hydroxypyrimidin-4-yl}amino)pyridine-3-carbonitrile]",,17 nM,9200
"COc1cnc(-c2nn(Cc3ccc(-n4cccn4)cc3)c3ccccc23)nc1Nc1ccncc1 [Example 2-8-3, 5-methoxy-2-{1-[4-(1H-pyrazol-1-yl)benzyl]-1H-indazol-3-yl}-N-(pyridin-4-yl)pyrimidin-4-amine]",,57 nM,10000
"CCOc1cc(F)c(Cn2nc(-c3nccc(N(C(=O)COC)c4ccncc4)n3)c3ccccc32)c(F)c1 [Example 16-2, N-{2-[1-(4-ethoxy-2,6-difluorobenzyl)-1H-indazol-3-yl]pyrimidin-4-yl}-2-methoxy-N-(pyridin-4-yl)acetamide]",,23 nM,3500
"COc1cnc(-c2nn(Cc3c(F)cc(OC(F)F)cc3F)c3ccccc23)nc1Nc1ccncc1 [Example 2-39-1, 2-{1-[4-(difluoromethoxy)-2,6-difluorobenzyl]-1H-indazol-3-yl}-5-methoxy-N-(pyridin-4-yl)pyrimidin-4-amine]",3600,5.6 nM,
"COc1cnc(-c2nn(Cc3ccccc3F)c3ccccc23)nc1Nc1ccncc1C(N)=O [Example 25-1, 4-({2-[1-(2-fluorobenzyl)-1H-indazol-3-yl]-5-methoxypyrimidin-4-yl}amino)pyridine-3-carboxamide]",,13 nM,≥ 10000
